Legend:
DBA/2 mice = assay: Audiogenic seizure model; assay type: in vivo; conditions: Mus musculus, DBA/2 mice, oral, auditory stimulation 1 hour after administration, read-out: Seizure suppression
How it was run: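 Male and female DBA/2 mice (3 weeks old, 8/group) dosed orally at 30 mg/kg in 5% gum arabic; 1 h later exposed to 12.6 kHz, 100-110 dB tone for 1 min or until tonic seizure. Maximum seizure score (0–4) recorded; suppression rate graded A (≥90%), B (70–<90%), C (50–<70%).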

ICR mice = assay: Rotarod test (motor coordination); assay type: in vivo, mouse; conditions: oral, rotarod 1 hour after administration
How it was run: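 Motor coordination was assessed in male ICR mice (Japan SLC, Inc., 5-6 weeks old, 8 per group). Animals were first trained to stay for 2 minutes on a rotarod turning at a fixed 15 rpm. One hour after oral dosing, each mouse was placed on a rod accelerating from 4 rpm to 40 rpm over 5 minutes, and latency to fall was recorded for up to 200 seconds. Latencies were expressed relative to the mean of the solvent-treated group.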

Structure (SMILES)	Motor dysfunction (ICR mice; dose 30 mg/kg)	inhibition in vivo at 30 mg/kg (DBA/2 mice)	also measured
Cc1cc(Oc2ccccc2)ccc1N1CCC(=O)NC1=O [Example 323]	B (a coordination disorder of more than 25% and 50% or less)	–	inhibition in vivo at 39 mg/kg (DBA/2 mice; dose 39 mg/kg): 70 to 90%
Cc1cc(Oc2ccccc2)ncc1N1CCC(=O)NC1=O [Example 325]	A (a coordination disorder of 25% or less)	70 to 90%	–
CC1CC(=O)NC(=O)N1c1ccc(Oc2ccccc2)cc1 (stereo not shown) [Example 328, 6-Methyl-1-(4-Phenoxyphenyl)Dihydropyrimidine-2,4 (1H,3H)-Dione]	A (a coordination disorder of 25% or less)	> 90%	–
O=C1CCN(c2ccc(Oc3ccccc3)c(F)c2)C(=O)N1 [Example 329]	A (a coordination disorder of 25% or less)	70 to 90%	–
O=C1CCN(c2ccc(Oc3ccccc3F)nc2)C(=O)N1 [Example 331]	A (a coordination disorder of 25% or less)	70 to 90%	–
O=C1CCN(c2ccc(Oc3cccc(F)c3)nc2)C(=O)N1 [Example 332]	A (a coordination disorder of 25% or less)	70 to 90%	–
Cc1cc(Oc2cccc(OC(F)(F)F)c2)ccc1N1CCC(=O)NC1=O [Example 336]	A (a coordination disorder of 25% or less)	70 to 90%	–
CC1(C)CC(=O)NC(=O)N1c1ccc(Oc2ccccc2)cc1 [Example 337, 6,6-Dimethyl-1-(4-Phenoxyphenyl)Dihydropyrimidine-2,4 (1H,3H)-Dione]	A (a coordination disorder of 25% or less)	> 90%	–
O=C1CCN(c2ccc(Cc3ccc(OC(F)(F)F)cc3)cc2)C(=O)N1 [Example 340]	A (a coordination disorder of 25% or less)	70 to 90%	–
CCC1CC(=O)NC(=O)N1c1ccc(Oc2ccccc2)cc1 (stereo not shown) [Example 343, 6-Ethyl-1-(4-Phenoxyphenyl)Dihydropyrimidine-2,4 (1H,3H)-Dione]	A (a coordination disorder of 25% or less)	> 90%	–
O=C1CCN(c2ccc(Oc3ccccc3)nn2)C(=O)N1 [Example 347, 1-(6-Phenoxypyridazin-3-Yl)Dihydropyrimidine-2,4 (1H,3H)-Dione]	A (a coordination disorder of 25% or less)	> 90%	–
N#Cc1cc(-c2cnc(Oc3ccccc3)nc2)ccn1 [Example 348]	–	–	inhibition in vivo at 1 mg/kg (DBA/2 mice; dose 1 mg/kg): > 90%; Motor dysfunction (ICR mice; dose 1 mg/kg): A (a coordination disorder of 25% or less)
N#Cc1ccc(-c2cnc(Oc3ccccc3)nc2)nc1 [Example 349]	–	–	inhibition in vivo at 3 mg/kg (DBA/2 mice; dose 3 mg/kg): > 90%; Motor dysfunction (ICR mice; dose 3 mg/kg): A (a coordination disorder of 25% or less)
N#Cc1cccc(-c2cnc(Oc3ccccc3)nc2)n1 [Example 350]	–	–	inhibition in vivo at 10 mg/kg (DBA/2 mice; dose 10 mg/kg): > 90%; Motor dysfunction (ICR mice; dose 10 mg/kg): A (a coordination disorder of 25% or less)

— patent US12391674B2, “Heterocyclic compounds for the treatment of epilepsy” (OTSUKA PHARMACEUTICAL CO., LTD., priority 2018, dated 2025)
